TGI and GI50 data for eight compounds are collected here from PubChem BioAssay (NCI).

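The compound was tested at five concentrations on cells cultured in 96-well plates, with a 48-hour exposure period. Abbreviation: GI50, concentration required for 50% inhibition of growth. Definition used: TGI = concentration required for complete inhibition of growth.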 A value given as a limit tells only on which side of the number the result lay.

What all share (assay): DTP human tumour cell line panel, 48 h
Experiment [1] deals with CAKI-1 renal.
Experiment [2] deals with CCRF-CEM leukemia.
Experiment [3] relates to HL-60(TB) leukemia.
Experiment [4] concerns HOP-62 NSCLC.
The subject of experiment [5] is HOP-92 NSCLC.
For experiment [6], the system named is NCI-H460 lung.
Experiment [7] relates to SF-539 CNS.
Experiment [8] concerns SK-MEL-28 melanoma.
Experiment [9] concerns SN12C renal.
Experiment [10] deals with U251 CNS.

`COc1ccc(Cc2coc3ccccc3c2=O)cc1OC`: the TGI – broadly, the concentration at which net growth stops – in experiment [1] is 49.5 µM; in [2] it was over 100 µM; in experiment [3], over 100 µM; in [4], over 100 µM; in experiment [5], over 100 µM; in [6], over 100 µM. Moreover, the concentration for total growth inhibition (TGI) in experiment [7], in experiment [8], in experiment [9] and in [10] was over 100 µM each time.

As to `O=S(=O)(NNc1ccccc1)c1ccccc1`, the total growth inhibition concentration (TGI) in [1] came to 13.5 µM; in experiment [2] it was 50 µM; in [3], 13.5 µM; in experiment [4], 32.7 µM; in experiment [5], 55.4 µM; in experiment [6], 21.2 µM. The TGI in experiment [7] was over 100 µM; in experiment [8], over 100 µM; in experiment [9] it was 18.7 µM; in experiment [10] it was 33.9 µM.

In the case of `CC1(C)CNc2cc(NC(=O)c3cccnc3NCc3ccncc3)ccc21`, the GI50 (usually the concentration that inhibits growth by half) is 21.1 µM in [1]; 23.7 µM in experiment [2]; 28 µM in experiment [3]; 50.9 µM in [4]; 19.4 µM in experiment [5]; 32.3 µM in experiment [6]. Further, the GI50 in [7] is 7.5 µM; in experiment [8], 22.1 µM; in experiment [9], 25.5 µM; in experiment [10], 39.1 µM. Further, the concentration for total growth inhibition (TGI) in experiment [1] is over 100 µM; in [2] it was over 100 µM; in experiment [3] it was 81.5 µM; in experiment [4], over 100 µM; in experiment [5] it was 80.6 µM; in experiment [6], over 100 µM. Also, the total growth inhibition concentration (TGI) in [7] was 58.9 µM; in experiment [8] it was over 100 µM; in experiment [9] it was over 100 µM; in [10], over 100 µM.

On to `CC1=C(c2ccccc2)C(O)(c2ccccc2)C(C)C1=O` (stereo not given), for which the GI50 in [1] was 24.6 µM; in [2], 23.7 µM; in experiment [3], 16.6 µM; in [4], 11.6 µM; in experiment [5], 4.07 µM; in [6], 25.1 µM. In addition, the GI50 in [7] was 17.1 µM; in experiment [8], 25.5 µM; in experiment [9], 15.4 µM; in [10], 22.1 µM. Also, the TGI in experiment [1] was over 100 µM; in experiment [2], over 100 µM; in [3] it was 87.4 µM; in experiment [4], over 100 µM; in [5], 65 µM; in [6], over 100 µM. The TGI in experiment [7], in experiment [8], in [9] and in experiment [10] was over 100 µM throughout.

On to `NCCCC[C@@H]1NC(=O)[C@H](CC(=O)O)NC(=O)CNC(=O)[C@H](CCCN=C(N)N)NC(=O)[C@@H](N)CSSC[C@@H](C(=O)O)NC(=O)[C@H](CC(=O)O)NC(=O)[C@@H]2CCCN2C(=O)CNC1=O`, for which the GI50 in [1], in experiment [2], in experiment [3], in [4], in [5] and in experiment [6] was over 100 µM each time. Besides, the GI50 in experiment [7], in experiment [8], in experiment [9] and in [10] was over 100 µM each time. For the same compound, the TGI in [1], in experiment [2], in experiment [3], in experiment [4], in experiment [5] and in experiment [6] was over 100 µM throughout. For the same compound, the TGI in [7], in [8], in [9] and in experiment [10] was over 100 µM each time.

Take `CC1=C(SCCC(=O)OC(C[Se]C2=C(C)C(=O)c3ccccc3C2=O)C(=O)NCCCCCC(=O)OCc2ccccc2)C(=O)c2ccccc2C1=O` (stereo not given): the GI50 in [1] was 6.89 µM; in experiment [2] it was 2.82 µM; in [3], 3.09 µM; in experiment [4], 3.82 µM; in experiment [5] it was 2.7 µM; in experiment [6] it was 1.9 µM. Moreover, the GI50 in [7] was 4.49 µM; in experiment [8], 11.9 µM; in [9], 4.63 µM; in experiment [10], 4.09 µM. Also, the TGI in experiment [1] was 21.3 µM; in [2], over 100 µM; in experiment [3] it was 8.52 µM; in experiment [4] it was 14.4 µM; in experiment [5], 7.89 µM; in [6] it was 4.54 µM. Further, the TGI was 15.3 µM in experiment [7], 24.7 µM in experiment [8], 16.7 µM in experiment [9] and 13.6 µM in [10].

For `CN(C)c1ccc2oc(=O)c3ccccc3c2c1`, the TGI in experiment [1] was over 100 µM; in experiment [2], over 100 µM; in experiment [3], over 100 µM; in experiment [4], 80.5 µM; in [5] it was over 100 µM; in experiment [6], over 100 µM. The concentration for total growth inhibition (TGI) in experiment [7] is over 100 µM; in [8] it was over 100 µM; in [9], over 100 µM; in experiment [10], 58.7 µM.

With `CCN(CC)CCCNc1cc(OC)cc2nc3cc(Cl)ccc3nc12`, the GI50 in experiment [1] is 1.75 µM; in experiment [2] it was 2.52 µM; in [3], 2.22 µM; in [4] it was 2.47 µM; in experiment [5], 1.69 µM; in experiment [6], 1.83 µM. Moreover, the GI50 was 8.36 µM in experiment [7], 1.79 µM in experiment [8], 1.09 µM in [9] and 1.22 µM in experiment [10]. Moreover, the concentration for total growth inhibition (TGI) stood at 5.03 µM in experiment [1]; 11.1 µM in [2]; 6.66 µM in experiment [3]; 8.44 µM in [4]; 9.5 µM in [5]; 10.3 µM in experiment [6]. Besides, the concentration for total growth inhibition (TGI) in [7] worked out at 21.7 µM; in experiment [8], 3.21 µM; in [9], 14.5 µM; in experiment [10], 3.68 µM.
